# Molecular target: Beta-3 Adrenergic Receptor (Homo sapiens (Human), UniProt P13945)
# Assay: Homogeneous Time-Resolved Fluorescence (HTRF) cAMP antagonist assay, IC50 determination
# Assay type: cell-based
# Conditions: CHO-K1 cells stably expressing recombinant receptor, isoproterenol at EC90
# Summary of the method: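 Antagonist mode: isoproterenol at its predetermined EC90 added after compound to recombinant CHO-K1 cells in IBMX-containing PBS, 1 h, room temperature. Compounds tested as 5-fold, 10-point dilutions, top final typically 10 or 100 μM. HTRF signal converted to cAMP via standard curve, giving IC50.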
# Chain of Beta-3 Adrenergic Receptor (P13945 whole entry, species assumed): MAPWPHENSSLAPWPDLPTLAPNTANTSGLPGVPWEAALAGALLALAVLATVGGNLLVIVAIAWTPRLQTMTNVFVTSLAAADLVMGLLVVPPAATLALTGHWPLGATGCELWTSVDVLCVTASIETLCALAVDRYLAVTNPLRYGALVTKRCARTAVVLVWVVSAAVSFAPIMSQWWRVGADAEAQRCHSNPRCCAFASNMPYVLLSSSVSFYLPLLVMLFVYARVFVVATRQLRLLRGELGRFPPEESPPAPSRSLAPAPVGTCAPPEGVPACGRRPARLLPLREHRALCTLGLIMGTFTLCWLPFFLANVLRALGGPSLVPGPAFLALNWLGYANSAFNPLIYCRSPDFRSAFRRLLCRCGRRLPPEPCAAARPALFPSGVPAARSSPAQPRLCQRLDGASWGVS
row,Compound,IC50
1,"CNS(=O)(=O)c1cccc(OC[C@@H](O)CN[C@H]2COC3(CCN(S(=O)(=O)c4cc(C)cc5c(O)ccnc45)CC3)C2)c1 [Compound 547, 3-((S)-2-hydroxy-3-((R)-8-(4-hydroxy-6-methylquinolin-8-ylsulfonyl)-1-oxa-8-azaspiro[4.5]decan-3-ylamino)propoxy)-N-methylbenzenesulfonamide]",179 nM
2,"CNS(=O)(=O)c1cccc(OC[C@@H](O)CN[C@H]2COC3(CCN(c4ncc(C(F)(F)F)cn4)CC3)C2)c1 [Compound 583, 3-((S)-2-hydroxy-3-((R)-8-(5-(trifluoromethyl)pyrimidin-2-yl)-1-oxa-8-azaspiro[4.5]decan-3-ylamino)propoxy)-N-methylbenzenesulfonamide]",1840 nM
3,"CNS(=O)(=O)c1cccc(OC[C@@H](O)CNC2COC3(CCN(S(=O)(=O)c4ccc(Cl)c(OC)c4)CC3)C2)c1 (stereo partly drawn) [Compound 206, 3-((2S)-3-(8-(4-chloro-3-methoxyphenylsulfonyl)-1-oxa-8-azaspiro[4.5]decan-3-ylamino)-2-hydroxypropoxy)-N-methylbenzenesulfonamide]",9.62 nM
4,"CNS(=O)(=O)c1cccc(OC[C@@H](O)CNC2COC3(CCN(S(=O)(=O)c4cccc(-c5ccc(NCCN6CCOCC6)nc5)c4)CC3)C2)c1 (stereo partly drawn) [Compound 371, 3-((2S)-2-hydroxy-3-(8-(3-(6-(2-morpholinoethylamino)pyridin-3-yl)phenylsulfonyl)-1-oxa-8-azaspiro[4.5]decan-3-ylamino)propoxy)-N-methylbenzenesulfonamide]",42 nM
5,"CNS(=O)(=O)c1cccc(OC[C@@H](O)CNC2COC3(CCN(S(=O)(=O)c4ccc(-c5ccccc5)s4)CC3)C2)c1 (stereo partly drawn) [Compound 187, 3-((2S)-2-hydroxy-3-(8-(5-phenylthiophen-2-ylsulfonyl)-1-oxa-8-azaspiro[4.5]decan-3-ylamino)propoxy)-N-methylbenzenesulfonamide]",7.72 nM
6,"CNS(=O)(=O)c1cccc(OC[C@@H](O)CNC2COC3(CCN(S(=O)(=O)c4ccc(OC)c(C)c4)CC3)C2)c1 (stereo partly drawn) [Compound 147, 3-((2S)-2-hydroxy-3-(8-(4-methoxy-3-methylphenylsulfonyl)-1-oxa-8-azaspiro[4.5]decan-3-ylamino)propoxy)-N-methylbenzenesulfonamide]",13 nM
7,"CNS(=O)(=O)c1cccc(OC[C@@H](O)CNC2COC3(CCN(S(=O)(=O)c4cnn(-c5ccccc5)c4C)CC3)C2)c1 (stereo partly drawn) [Compound 132, 3-((2S)-2-hydroxy-3-(8-(5-methyl-1-phenyl-1H-pyrazol-4-ylsulfonyl)-1-oxa-8-azaspiro[4.5]decan-3-ylamino)propoxy)-N-methylbenzenesulfonamide]",10.8 nM
8,"CNS(=O)(=O)c1cccc(OC[C@@H](O)CN[C@@H]2COC3(CCN(S(=O)(=O)c4cccc(-c5ccc(CNCC(C)C)cc5)c4)CC3)C2)c1 [Compound 360, 3-((S)-2-hydroxy-3-((S)-8-(4′-((isobutylamino)methyl)biphenyl-3-ylsulfonyl)-1-oxa-8-azaspiro[4.5]decan-3-ylamino)propoxy)-N-methylbenzenesulfonamide]",20.5 nM
9,"CCNS(=O)(=O)c1cccc(OC[C@@H](O)CNC2COC3(CCN(S(=O)(=O)c4cccc(-c5ccc(CC#N)cc5)c4)CC3)C2)c1 (stereo partly drawn) [Compound 214, 3-((2S)-3-(8-(4′-(cyanomethyl)biphenyl-3-ylsulfonyl)-1-oxa-8-azaspiro[4.5]decan-3-ylamino)-2-hydroxypropoxy)-N-ethylbenzenesulfonamide]",31.4 nM
10,"CNS(=O)(=O)c1cccc(OC[C@@H](O)CNC2COC3(CCN(S(=O)(=O)c4cc(C(F)(F)F)ccc4Cl)CC3)C2)c1 (stereo partly drawn) [Compound 133, 3-((2S)-3-(8-(2-chloro-5-(trifluoromethyl)phenylsulfonyl)-1-oxa-8-azaspiro[4.5]decan-3-ylamino)-2-hydroxypropoxy)-N-methylbenzenesulfonamide]",65.4 nM
11,"CNS(=O)(=O)c1cccc(OC[C@@H](O)CN[C@H]2COC3(CCN(S(=O)(=O)c4cccc(-c5ccc(N)nc5)c4)CC3)C2)c1 [Compound 287, 3-((S)-3-((R)-8-(3-(6-aminopyridin-3-yl)phenylsulfonyl)-1-oxa-8-azaspiro[4.5]decan-3-ylamino)-2-hydroxypropoxy)-N-methylbenzenesulfonamide]",21.9 nM

# More lines, in order of falling IC50, values ahead:
row,IC50,Compound
1,2000 nM,"CN(C)CCCNS(=O)(=O)c1cccc(OC[C@@H](O)CNC2COC3(CCN(S(=O)(=O)c4ccc5c(c4)NC(=O)CO5)CC3)C2)c1 (stereo partly drawn) [Compound 311, N-(3-(dimethylamino)propyl)-3-((2S)-2-hydroxy-3-(8-(3-oxo-3,4-dihydro-2H-benzo[b][1,4]oxazin-6-ylsulfonyl)-1-oxa-8-azaspiro[4.5]decan-3-ylamino)propoxy)benzenesulfonamide]"
2,453 nM,"CNS(=O)(=O)c1cccc(OC[C@@H](O)CN[C@H]2COC3(CCN(S(=O)(=O)c4cc5c(nc4O)OCCN5C)CC3)C2)c1 [Compound 454, 3-((S)-2-hydroxy-3-((R)-8-(6-hydroxy-1-methyl-2,3-dihydro-1H-pyrido[2,3-b][1,4]oxazin-7-ylsulfonyl)-1-oxa-8-azaspiro[4.5]decan-3-ylamino)propoxy)-N-methylbenzenesulfonamide]"
3,206 nM,"CNS(=O)(=O)c1cccc(OC[C@@H](O)CNC2COC3(CCN(S(=O)(=O)c4ccc(O)nc4)CC3)C2)c1 (stereo partly drawn) [Compound 395, 3-((2S)-2-hydroxy-3-(8-(6-hydroxypyridin-3-ylsulfonyl)-1-oxa-8-azaspiro[4.5]decan-3-ylamino)propoxy)-N-methylbenzenesulfonamide]"
4,125 nM,"CNS(=O)(=O)c1cccc(OC[C@@H](O)CNC2COC3(CCN(S(=O)(=O)c4ccccc4-c4ccccc4)CC3)C2)c1 (stereo partly drawn) [Compound 174, 3-((2S)-3-(8-(biphenyl-2-ylsulfonyl)-1-oxa-8-azaspiro[4.5]decan-3-ylamino)-2-hydroxypropoxy)-N-methylbenzenesulfonamide]"
5,64.6 nM,"CNS(=O)(=O)c1cccc(OC[C@@H](O)CNC2COC3(CCN(S(=O)(=O)c4ccc(-c5cc(C(F)(F)F)on5)s4)CC3)C2)c1 (stereo partly drawn) [Compound 208, 3-((2S)-2-hydroxy-3-(8-(5-(5-(trifluoromethyl)isoxazol-3-yl)thiophen-2-ylsulfonyl)-1-oxa-8-azaspiro[4.5]decan-3-ylamino)propoxy)-N-methylbenzenesulfonamide]"
6,52.3 nM,"CNS(=O)(=O)c1cccc(OC[C@@H](O)CN[C@H]2COC3(CCN(S(=O)(=O)c4cnc5[nH]c(=O)[nH]c5c4)CC3)C2)c1 [Compound 477, 3-((S)-2-hydroxy-3-((R)-8-(2-oxo-2,3-dihydro-1H-imidazo[4,5-b]pyridin-6-ylsulfonyl)-1-oxa-8-azaspiro[4.5]decan-3-ylamino)propoxy)-N-methylbenzenesulfonamide]"
7,33 nM,"CCn1cc(S(=O)(=O)N2CCC3(CC2)C[C@@H](NC[C@H](O)COc2cccc(S(=O)(=O)NC)c2)CO3)c(=O)c2ccccc21 [Compound 492, 3-((S)-3-((R)-8-(1-ethyl-4-oxo-1,4-dihydroquinolin-3-ylsulfonyl)-1-oxa-8-azaspiro[4.5]decan-3-ylamino)-2-hydroxypropoxy)-N-methylbenzenesulfonamide]"
8,24.7 nM,"CNS(=O)(=O)c1cccc(OC[C@@H](O)CN[C@@H]2COC3(CCN(S(=O)(=O)c4ccc(OC)c(C)c4)CC3)C2)c1 [Compound 266, 3-((S)-2-hydroxy-3-((S)-8-(4-methoxy-3-methylphenylsulfonyl)-1-oxa-8-azaspiro[4.5]decan-3-ylamino)propoxy)-N-methylbenzenesulfonamide]"
9,16.2 nM,"CNS(=O)(=O)c1cccc(OC[C@@H](O)CN[C@@H]2COC3(CCN(S(=O)(=O)c4cccc(-c5ccc(CC#N)cc5)c4)CC3)C2)c1 [Compound 293, 3-((S)-3-((S)-8-(4′-(cyanomethyl)biphenyl-3-ylsulfonyl)-1-oxa-8-azaspiro[4.5]decan-3-ylamino)-2-hydroxypropoxy)-N-methylbenzenesulfonamide]"
10,15.9 nM,"CNS(=O)(=O)c1cccc(OC[C@@H](O)CN[C@@H]2COC3(CCN(S(=O)(=O)c4cccc(-c5ccc(OCC#N)cc5)c4)CC3)C2)c1 [Compound 297, 3-((S)-3-((S)-8-(4′-(cyanomethoxy)biphenyl-3-ylsulfonyl)-1-oxa-8-azaspiro[4.5]decan-3-ylamino)-2-hydroxypropoxy)-N-methylbenzenesulfonamide]"
11,14.3 nM,"CCCn1cc(-c2cccc(S(=O)(=O)N3CCC4(CC3)CC(NC[C@H](O)COc3cccc(S(=O)(=O)NC)c3)CO4)c2)cn1 (stereo partly drawn) [Compound 80, 3-((2S)-2-hydroxy-3-(8-(3-(1-propyl-1H-pyrazol-4-yl)phenylsulfonyl)-1-oxa-8-azaspiro[4.5]decan-3-ylamino)propoxy)-N-methylbenzenesulfonamide]"
12,13.5 nM,"CNS(=O)(=O)c1cccc(OC[C@@H](O)CNC2COC3(CCN(S(=O)(=O)c4cccc(-c5cnn(C)c5)c4)CC3)C2)c1 (stereo partly drawn) [Compound 61, 3-((2S)-2-hydroxy-3-(8-(3-(1-methyl-1H-pyrazol-4-yl)phenylsulfonyl)-1-oxa-8-azaspiro[4.5]decan-3-ylamino)propoxy)-N-methylbenzenesulfonamide]"
13,11.9 nM,"CNS(=O)(=O)c1cccc(OC[C@@H](O)CNC2COC3(CCN(S(=O)(=O)c4ccc5nsnc5c4)CC3)C2)c1 (stereo partly drawn) [Compound 177, 3-((2S)-3-(8-(benzo[c][1,2,5]thiadiazol-5-ylsulfonyl)-1-oxa-8-azaspiro[4.5]decan-3-ylamino)-2-hydroxypropoxy)-N-methylbenzenesulfonamide]"
14,10.2 nM,"CNS(=O)(=O)c1cccc(OC[C@@H](O)CN[C@H]2COC3(CCN(S(=O)(=O)c4cnc5c(C)cccc5c4O)CC3)C2)c1 [Compound 528, 3-((S)-2-hydroxy-3-((R)-8-(4-hydroxy-8-methylquinolin-3-ylsulfonyl)-1-oxa-8-azaspiro[4.5]decan-3-ylamino)propoxy)-N-methylbenzenesulfonamide]"
15,5.4 nM,"CNS(=O)(=O)c1cccc(OC[C@@H](O)CNC2COC3(CCN(S(=O)(=O)c4ccc5ccccc5c4)CC3)C2)c1 (stereo partly drawn) [Compound 1, 3-((2S)-2-hydroxy-3-(8-(naphthalen-2-ylsulfonyl)-1-oxa-8-azaspiro[4.5]decan-3-ylamino)propoxy)-N-methylbenzenesulfonamide]"

# Source: US11987588B2, “Modulators of the beta-3 adrenergic receptor useful for the treatment or prevention of heart failure and disorders related thereto” (Arena Pharmaceuticals, Inc., priority 2017, dated 2024)
